# In patent US20250376441A1, “NOVEL COMPOUND AND PHARMACEUTICAL COMPOSITION COMPRISING SAME AS ACTIVE INGREDIENT” (Industry-Academic Cooperation Foundation, Yonsei University, priority 2017, published 2025):
# Legend:
# [1] = test system: Salmonella typhimurium TA98; experiment: Ames reverse mutation test, TA98
# Procedure: (§1) For each strain, treatment with a single concentration of 200 μg/plate was performed in triplicate and mutation was checked.
# [2] = target: AMP-activated protein kinase (AMPK); experiment: AMPK kinase assay (luminescence, purified enzyme, ATP, substrate peptide); type: biochemical; details: AMPK activation
# Procedure: In order to identify an effect of the Preparation Example 6 having the highest docking score in Experimental Example 1 on activity of the AMP-activated protein kinase (AMPK), a kinase assay was performed. The kinase assay was performed as follows. […] Then, purified AMP-activated protein kinase and ATP were allowed to react on a substrate peptide for the AMP-activated protein kinase, and degrees of luminescence thereof were shown as EC50 in Table 3 and FIG. 3.
# Half-life test = experiment: Half-life test
# Excerpt: In order to identify whether the Preparation Example 6 according to the present invention can be orally administered, a half-life of the compound was checked. […] The results are illustrated in FIG. 18.
# [3] = test system: Salmonella typhimurium TA100
# Procedure: as §1
# [4] = test system: amyloid-beta peptide1-42 degenerative neurological disease-induced mice; experiment: Morris water maze test; type: in vivo, ICR mice; details: donepezil group
# Excerpt: Six-week-old ICR mice (male) were purchased, and then examined for general health for 6 days while subjecting them to quarantine and acclimation under an environment of animal breeding room. Then, healthy individuals were selected and used for the experiment. Identification of each individual was made by marking the number of each individual on the tail using a permanent marker, and identification of a breeding box was made by attaching an individual identification card on which test number, test substance name, test item, date of acquisition, acclimation period, date of grouping, test period, sex/animal number, and person in charge are indicated.
# (§2) In order to induce a degenerative neurological disease, the experimental animals of Preparatory Example 1 were anesthetized by inhalation with 2.5% isoflurane. Then, 1 μg of amyloid-beta peptide1-42, a degenerative neurological disease-inducing substance, was administered to the animals at both hippocampal positions (AP: −2.3, L: ±2.0, H: −1.5) using a stereotaxic apparatus. […] For the administration, 1 μl was injected, at a flow rate of 0.2 μl/min, with a […] gas-tight glass syringe (Hamilton, Reno, NV, USA) using a perfusion pump (Pump 22, Harvard Apparatus, South Natick, MA, USA). Subsequently, the syringe was allowed to stand for 5 minutes and then removed.
# (§3) Then, a degenerative neurological disease was induced as in Preparation Example 2.
# After induction of the degenerative neurological disease, the following test was conducted after a one-day recovery period passed.
# (§4) A circular pool (diameter: 120 cm, height: 75 cm) was filled with water to a depth of 25±1 cm as in FIG. 4, and a 24 cm platform was prepared by hiding it 1 cm below the water surface. Space cues were installed on the four sides of the wall so that the aminals can identify locations, and skimmed milk powder was dissolved into water so that the animals cannot identify the platform with naked eyes. One day before the experiment, all the experimental animals were allowed to swim freely for 1 minute in a water bath having no platform, so that the animals can adapt to the swimming situation. After that, a test group was allowed to start, in any order, from two of the three quadrants except the quadrant where the platform was placed, and allowed to find the platform for 60 seconds. In a case where an animal finds the platform, the animal was allowed to stay thereon for 20 seconds. […] As soon as end of the position learning time, which is the 20-second staying time, the animal was allowed to start again from any quadrant, and the time and distance to reach the platform were measured. The procedure was performed four times a day, and all procedures were taken with a camera and analyzed with a video tracking system (Panlab, USA). Probe trials were made on the fifth day after the four-day experiment in toal was completed. The test group was allowed to swim freely for 90 seconds without the platform, thereby performing evaluation on whether the test group holds a memory of the platform location. The results are illustrated in FIGS. 5 to 7.
# [5] = test system: amyloid-beta peptide1-42 degenerative neurological disease-induced mice; experiment: Probe test (Morris water maze, platform removed); type: in vivo, ICR mice; details: donepezil group, 90 seconds without platform, p<0.01 vs beta-amyloid group
# Procedure: as §2, §3, §4
# The results are illustrated in FIGS. 8 and 9.
structure (smiles),measurement,setting,value
"O=[N+]([O-])c1ccc2c(c1)Cc1ccccc1-2 [2-Nitrofluorene, 2-nitrofluorene, reference compound]",Reverse mutation [factor] w/o S-9 mix,"[1]; TA98, without S-9, factor versus control",915.0]
same,Reverse mutation/dish (mean ± SD) w/o S-9 mix,"[1]; TA98, without S-9, Preparation Example 6 at 200 μg/plate, 2-Nitrofluorene concentration 2",290 ± 8
"NC(=O)c1ncn([C@@H]2O[C@H](CO)[C@@H](O)[C@H]2O)c1N [AICAR, reference compound]",EC50,[2],299 nM
"Oc1ccc(C=Cc2cc(O)cc(O)c2)cc1 [Resveratrol, reference compound]",half-life,Half-life test,8 to 10 min
"[N-]=[N+]=[N-] [Sodium azide, sodium azide, reference compound]",Reverse mutation [factor] w/o S-9 mix,"[3]; TA100, without S-9, factor versus control",[5.5]
same,Reverse mutation/dish (mean ± SD) w/o S-9 mix,"[3]; TA100, without S-9, Preparation Example 6 at 200 μg/plate, Sodium azide concentration 1",618 ± 13
"COc1cc2c(cc1OC)C(=O)C(CC1CCN(Cc3ccccc3)CC1)C2 (stereo not drawn) [donepezil, reference compound]",maximum time to find the platform (escape latency),[4],111.99 (±22.59) seconds
same,minimum time to find the platform (escape latency),[4],30.82 (±13.96) seconds
same,swimming time in the target quadrant,[5],39.04 (±8.68) seconds
